Laboratory results taken from patent publication US20240269120A1, “Method for Treating an Autoimmune and Inflammatory Disease” (Cellestia Biotech AG, priority 2021, published 2024).

Columns and labels:
[1] = test system: NSG mice injected with human PBMCs (GvHD); assay: Humanized GvHD mouse model, ex vivo pre-treated PBMCs plus in vivo treatment; parameters: GvHD clinical score: Body weight loss (D59) / GvHD clinical score: Paleness (D59) / GvHD clinical score: Posture (D59) / GvHD clinical score: Skin integrity (day 45) / GvHD clinical score: Activity score / GvHD clinical score: Fur texture (day 45): scale not given here; details: for GvHD clinical score: Body weight loss (D59): label = ex vivo PBMC treatment (7 hrs)/in vivo treatment (3 days), DMSO/Vehicle 2.0; for GvHD clinical score: Paleness (D59) / GvHD clinical score: Activity score / GvHD clinical score: Skin integrity (day 45) / GvHD clinical score: Posture (D59) / GvHD clinical score: Fur texture (day 45) / Cumulative GvHD score: label = ex vivo PBMC treatment/in vivo treatment; for GvHD clinical score: Paleness (D59): DMSO/Vehicle 0.9; for GvHD clinical score: Activity score: DMSO/Vehicle 1.0; for GvHD clinical score: Skin integrity (day 45): DMSO/Vehicle 1.25; for GvHD clinical score: Posture (D59): DMSO/Vehicle 1.3; for GvHD clinical score: Fur texture (day 45): DMSO/Vehicle 1.35; for Cumulative GvHD score: sum of individual scores, DMSO/Vehicle 7.8
Description: Humanized GvHD mouse model: 6-8 weeks old NSG mice were intraperitoneally injected with 10 million human peripheral blood mononuclear cells (PBMCs) as below:
A cumulative GvHD clinical score was calculated by addition of scores for individual parameters (e.g. cumulative score=BWL+posture+activity+fur texture+skin integrity+paleness).
Ex-vivo pre-treatment of PBMCs and in-vivo treatment of mice: Human PBMCs were ex-vivo treated with either DMSO or 6-(4-tert-butylphenoxy)pyridin-3-amine and then intraperitoneally injected into NSG mice. Mice were in vivo treated with different compounds as below: • i. DMSO ex vivo hPBMCs treatment (7 hrs), plus vehicle in vivo treatment • ii. DMSO ex vivo hPBMCs treatment (7 hrs), plus 6-(4-tert-butylphenoxy)pyridin-3-amine in vivo treatment for 3 days • iii. 6-(4-tert-butylphenoxy)pyridin-3-amine ex vivo hPBMCs treatment (7 hrs), plus 6-(4-tert-butylphenoxy)pyridin-3-amine in vivo treatment for 3 days • iv. DMSO ex vivo PBMCs treatment (7 hrs) plus Ruxolitinib in vivo treatment for 3 days • v. 6-(4-tert-butylphenoxy)pyridin-3-amine ex vivo hPBMCs treatment (7 hrs), plus Ruxolitinib in vivo treatment for 3 days
(§1) Following PBMC injections, mice were treated with vehicle or 6-(4-tert-butylphenoxy)pyridin-3-amine or Ruxolitinib starting at day 0. Mice were monitored from 60-85 days for symptoms of GvHD and scored according to a standard clinical scoring system for GvHD (Naserian et al., 2018) (see table 1) and a cumulative clinical score was obtained by addition of clinical score for individual parameters. A maximum score of 6 is measured when reaching endpoint. Cell proliferation assay: The effect of compounds on T cell proliferation was quantified using Cell trace violet (CTV). PBMCs/splenocytes were incubated with CTV for 20 minutes at 37° C. Cells were washed twice with RPMI complete medium. CTV labelled cells were stimulated with anti-CD3 and anti-CD28 antibodies and treated with control or compounds and cultured at 37° C. for 96 hours. The cell division index was measured by flow cytometry.

IFNG = assay: ELISA of supernatant from activated human PBMC cultures: IFNG; type: cell-based; details: control 0%
Description: (§2) Human PBMCs and mouse splenocyte in vitro stimulation and treatment: Human peripheral blood mononuclear cells (PBMCs) and mouse splenocytes from donors were stimulated in vitro with anti-CD3 and anti-CD28 antibodies. The stimulated cells were simultaneously treated with compounds for 96 hours. The T cells were profiled for different cell surface and intracellular markers and proliferation by flow cytometry.
(§3) ELISA assay: Supernatant from activated human PBMC cultures described above was separated from cells at the end of culture time. Key cytokines (IL-6, IFN-γ, IL-17) were quantified using sandwich ELISA reagents set (Diaclone) following manufacturer's instruction manual.

IL-17 = assay: ELISA of supernatant from activated human PBMC cultures: IL-17; type: cell-based; details: control 0%
Description: as §2, §3

IL-6 = assay: ELISA of supernatant from activated human PBMC cultures: IL-6; type: cell-based; details: control 0%
Description: as §2, §3

Treg cells = assay: Treg expansion in activated human PBMC cultures (anti-CD3/anti-CD28, flow cytometry); type: cell-based; details: anti-CD3 and anti-CD28, 96 hours, control 0%
Description: as §2
(§4) Flow cytometry analysis: Flow cytometry analysis was performed to quantify cell surface and intracellular markers expression and measure cell division index.
Viability staining: Cells were transferred into a 96 well conical bottom plate and washed with serum free PBS1×. Cells were incubated with Zombie NIR (Biolegend #423105)+FC block ([…]) for 20 minutes at 4° C. Cells were washed with staining medium (SM) (1×HBSS, 2.5 mM EDTA, 2% NBS
Cell surface marker staining: Cells were stained with antibodies against cell surface markers (CD3, CD4, CD8, CD25, Biolegend or ThermoFisher) for 20 minutes at 4° C. Cells were washed with SM before continuing with nuclear staining.
FOXP3 nuclear staining: Cells were fixed and permeabilized with Foxp3 Transcription Factor Staining Buffer Set (ThermoFisher #00-5523) for 20 minutes at room temperature. […] Results are finally analysed with the software FlowJo v.10.7.1.

activated CD8 T cells = assay: Cell proliferation assay (Cell trace violet), activated CD8 T cells; type: cell-based; details: control 0%
Description: as §1, §4

activated CD4 T cells = assay: Cell proliferation assay (Cell trace violet), activated CD4 T cells; type: cell-based; details: control 0%
Description: as §1, §4

[2] = test system: irradiated Balb/c mice transplanted with TCD-BM + splenocytes from C57Bl6 mice (GvHD); assay: Allogeneic bone marrow transplant GvHD model; type: in vivo, mouse; details: allo-bone marrow transplant, compared with vehicle
Description: Allogeneic Bone marrow transplant: Recipient Balb/c mice were irradiated twice 3.75Gy (T=0 and T=4 h) in an X-ray source irradiator before transplantation at T=8 h. Treatment with antibiotics (Nopil) and analgesic (Dafalgan) was supplemented to drinking water 4 days before injection. Irradiated recipient Balb/c mice were transplanted with 5 million T cell depleted bone marrow+1 million splenocytes. Allogeneic recipient animals were treated with vehicle or 6-(4-tert-butylphenoxy)pyridin-3-amine subcutaneously at 20 mg/kg for two days immediately after allo-BM transplant, given a 10 days treatment holiday to recover body weight loss due to whole body irradiation and then treatment continued at 20 mg/kg. […] Animals were monitored for symptoms of GvHD development (severe body weight loss, alopecia and diarrhea.
Graft vs host disease (GvHD) is an example of alloimmune disease that develops following allo-hematopoetic stem cell transplant (allo-HSCT) in humans. The activity of 6-(4-tert-butylphenoxy)pyridin-3-amine and a calcineurin inhibitor Cyclosprin A was investigated in a mouse model of GvHD following allo-bone marrow transplant. In this model, T cell depleted bone marrow cells (TCD-BM)+splenocytes from C57Bl6 mice were transplanted into irradiated Balb/c mice.

Row | Molecule | GvHD clinical score: Body weight loss (D59) [1] | GvHD clinical score: Paleness (D59) [1] | GvHD clinical score: Activity score [1] | GvHD clinical score: Skin integrity (day 45) [1] | GvHD clinical score: Posture (D59) [1] | GvHD clinical score: Fur texture (day 45) [1] | Cumulative GvHD score [1] | Percentage downregulation of IFNG (IFNG) | Percentage downregulation of IL-17 (IL-17) | Percentage downregulation of IL-6 (IL-6) | expansion of Treg cells (Treg cells) | Percentage inhibition of CD8 T cells (proliferation) (activated CD8 T cells) | Percentage inhibition of CD4 T cells (proliferation) (activated CD4 T cells) | prevention of GvHD development (in words) [2]
1 | CC(C)(C)c1ccc(Oc2ccc(N)cn2)cc1 [6-(4-tert-butylphenoxy)pyridin-3-amine/6-(4-tert-butylphenox] | 0.9 | 1.2 | 0.5 | 0.7 | 0.7 | 1.2 | 5.2 |  |  |  |  |  |  | 
2 | N#CC[C@H](C1CCCC1)n1cc(-c2ncnc3[nH]ccc23)cn1 [DMSO/Ruxolitinib, Ruxolitinib, reference compound] | 1.6 | 0.9 | 0.9 | 1.2 | 1.2 | 1.1 | 6.9 |  |  |  |  |  |  | 
3 | CNc1ccc(Oc2ccc(-c3cncs3)cc2)nc1 [N-methyl-6-(4-(thiazol-5-yl)phenoxy)pyridin-3-amine] |  |  |  |  |  |  |  | 38% | 85% | 80% |  |  |  | 
4 | Cc1nc(Oc2ccc(-c3ccc(F)cc3)cc2)ccc1N [6-((4′-fluoro-[1,1′-biphenyl]-4-yl)oxy)-2-methylpyridin-3-amine] |  |  |  |  |  |  |  | 41% | 78% | 66% | 120% | 74% | 40% | 
5 | Cyclosporin A [reference compound] |  |  |  |  |  |  |  |  |  |  |  |  |  | did not perform better than vehicle treated animals
6 | CC(C)(C)c1ccc(Oc2ccc(N)cn2)cc1 [DMSO/6-(4-tert-butylphenoxy)pyridin-3-amine] | 1.35 | 1.2 | 0.5 | 0.65 | 1.3 | 0.95 | 5.95 |  |  |  |  |  |  | 
